Test system: HEK293T cells
Assay: Flow cytometry (CFlow): delivery of FAM-labeled single-stranded PGY-sRNA-6 into HEK293T cells by different concentrations of single sphingosine derivative (Example 1)
Type: cell-based, human
Conditions: for delivery of single-stranded PGY-sRNA-6 into 293T cells (fluorescence shift compared to free uptake group): different concentrations: 3.75, 12.5, 37.5 μg single lipid, 0.1 nmol FAM-labeled sRNA, final 100 nM, 9 hours, flow cytometry; for Lipid delivery group (different concentrations of lipids) 3.75 μg/mL: single sphingosine derivative 3.75 μg/mL; for Lipid delivery group (different concentrations of lipids) 3.75 μg/mL / Lipid delivery group (different concentrations of lipids) 12.5 μg/mL / Lipid delivery group (different concentrations of lipids) 37.5 μg/mL: FAM-labeled PGY-ssRNA-6 100 nM, 293T cells, fluorescence shift by flow cytometry; for Lipid delivery group (different concentrations of lipids) 12.5 μg/mL: single sphingosine derivative 12.5 μg/mL; for Lipid delivery group (different concentrations of lipids) 37.5 μg/mL: single sphingosine derivative 37.5 μg/mL
Method: 2.1 5 μl of small RNA (Ribobio, 20 μM, as shown in Table 2) and 95 μL of DEPC (Sigma) treated water were added into a 1.5 ml EP tube and mixed well. Then a certain amount of single lipid or lipid composition in chloroform solution (as shown in Table 1) was added and fully mixed by sucking and blowing;
2.2 The system was fully mixed and was heated in a water bath at 90° C. for 15 minutes;
2.3 The system was taken out and cooled down to room temperature.
4.3 The human embryonic kidney cell line HEK293T and human monocyte THP-1 cells used in the experiment were cultured to logarithmic growth phase, and then plated into 12-well plates with a cell density of 6×10^5/1 mL medium/well. The 12-well plate (1 mL medium/well) was incubated overnight (12 h) at 37° C., followed by subsequent experiments.
4.4 The experiment groups were as follows: • 1) Naïve group: untreated cells. This group served as a blank control group. • 2) Free uptake group: […] of 5′-FAM labeled small RNA solution (storage concentration is 20 μM) was directly added. This group served as a negative control group; • 3) Lipid nucleic acid mixture treatment group: The mixture of the lipid prepared in step 2 and the 5′-FAM-labeled small RNA was added into the cells and mixed well. The final concentration of small RNA is 100 nM.
4.5 After co-incubation with cells for 6 h/9 h, the cells were washed three times with PBS. The cells were re-suspended with PBS (self-prepared). The flow cytometer Accuri® C6 instrument (purchased from BD, US) was used to detect the fluorescence intensity of the cells in the sample wells. Implementation method: the software CFlow Plus used in the flow cytometer Accuri® C6 instrument detection was opened, the instrument was washed with cleaning solution for 3 minutes, and then washed with double-distilled water for 5 minutes. The injection of blank group samples was started while setting the number of cells unlimited. The injection of Naïve group samples was stopped when the number of cells detected was 10000 events. The live cell group in the fluorescence spectrum (abscissa: FSC-A, ordinate: SSC-A) was circled as gate P1. With the number of cells set as limited, the detection was stopped when the number of cells in gate P1 reached 10000 events. The fluorescence shift value was obtained in the fluorescence spectrum (abscissa: fluorescence channel FLA-1, ordinate: SSC-A).
1) Conditions of the boiling method: to 100 μL FAM-labeled single-stranded PGY-sRNA-6 solution was added corresponding amount of lipid solution, and heated at 90° C. for 15 min;
2) Experimental conditions: the final concentration of small RNA was 100 nM. 9 hours after being added to the cells, the amount of single-stranded PGY-sRNA-6 that entered into the cells was compared by detecting the fluorescence shift using flow cytometry technology. For the detailed protocols, see “Flow cytometry technology (CFlow) determined the uptake amount of nucleic acid that is delivered into cells by lipid”. All experiments were performed in triplicates.

Structure (SMILES)	delivery of single-stranded PGY-sRNA-6 into 293T cells (fluorescence shift compared to free uptake group)	Lipid delivery group (different concentrations of lipids) 3.75 μg/mL [%]	Lipid delivery group (different concentrations of lipids) 12.5 μg/mL [%]	Lipid delivery group (different concentrations of lipids) 37.5 μg/mL [%]
CCCCCCCCCCCCCC[C@@H](O)[C@@H](O)[C@@H](N)CO [So-63, 2S-amino-1,3S,4R-octadecanetriol]	deliver	5.60	7.70	6.50
CCCCCCCCCCCCC/C=C/[C@@H](O)[C@H](CO)NC(=O)CCCCCNC(=O)CCCC[C@@H]1SC[C@@H]2NC(=O)N[C@@H]21 [So-3, N-hexanoyl-biotin-D-erythro-Sphingosine]	deliver	1.40	2.10	3.40
CCCCCCCCCCCCCCC[C@@H](O)[C@H](CO)NC(=O)CCCCCCC [So-12, N-octanoyl-D-erythro-Dihydrosphingosine]	deliver	5.60	2.30	1.60
CCCCCCCCCCCCC/C=C/[C@@H](O)[C@@H](N)COP(=O)(O)O [So-5, Sphingosine-1-Phosphoric Acid]	deliver	2.80	1.60	2.40
CCCCCCCCCCCCCC[C@@H](O)[C@@H](N)COP(=O)(O)O [So-15, dihydro-D-erythro-Sphingosine-C17-1-phosphate]	deliver	4.70	1.90	2.40
CCCCCCCCCCCCCCC[C@@H](O)[C@@H](N)CO (stereo in doubt) [So-71, (2S,3R)-2-amino-1,3-Octadecanediol]	deliver	3.60	6.20	8.80
CCCCCCCCCCCCC/C=C/[C@@H](O)[C@H](CO[C@@H]1O[C@H](CO)[C@H](O)[C@H](O)[C@H]1O)NC(=O)CCCCCCCCCCCCCC [So-61, N-[(1S,2R,3E)-1-[(β-D-galactopyranosyloxy)methy1]-2-hydroxy-3-heptadecen-1-yl]-pentadecanamide]	deliver	7.40	8.10	7.00
CCCCCCCCCCCCCCC[C@H](O)[C@H](N)CO [So-46, C18 L-erythro Sphinganine (d18:0)]	deliver	0.20	0.30	6.90
CCCCCCCCCCCCC/C=C/[C@@H](O)[C@H](CO)NC(=O)CCCCCCCCCCC [So-62, N-[(1S,2R,3E)-2-hydroxy-1-(hydroxymethyl)-3-heptadecen-1-yl]-dodecanamide]	deliver	6.60	6.50	7.10
CCCCCCCCCCCCCCCC(=O)N[C@@H](CO)[C@H](O)CCCCCCCCCCCCCCC [So-10, N-hexadecanoyl-D-erythro-Dihydrosphingosine]	deliver	2.10	3.40	2.50
CCCCCCCCCCCCC/C=C/[C@@H](O)[C@@H](N)CO[C@@H]1O[C@H](CO)[C@@H](O)[C@H](O)[C@H]1O [So-49, 1-β-D-Glucosylsphingosine (synthetic)]	deliver	0.50	1.70	7.40
CCCCCCCCCCCCCC[C@@H](O)[C@@H](O)[C@H](CO)NC(=O)CCCCC [So-67, N-[(1S,2S,3R)-2,3-dihydroxy-1-(hydroxymethyl)heptadecyl]-hexanamide]	deliver	6.30	5.30	2.80
CCCCCCCCCC/C=C/[C@@H](O)[C@@H](N)CO [So-73, 2S-amino-4E-pentadecene-1,3R-diol]	deliver	3.20	4.60	9.50
CCCCCCCCCCCCC/C=C/[C@@H](O)[C@H](CO)N(C)C [So-4, N,N-Dimethylsphingosine (d18:1)]	deliver	1.70	2.20	0.00
[2H]C([2H])([2H])C([2H])([2H])C([2H])([2H])C([2H])([2H])CCCCCCCCC/C=C/[C@@H](O)[C@@H](N)CO [So-74, (2S,3R,E)-aminooctadec-4-ene-15,15,16,16,17,17,18,18,18-d9-1,3-diol]	deliver	4.00	3.10	6.60

— US11974969B2, “Artificially synthesized sphingosine derivative lipoid monomer and use of same for delivering nucleic acid” (INSTITUTE OF BASIC MEDICAL SCIENCES CHINESE ACADEMY OF …, priority 2018, dated 2024)
